# Legend:
# KCC3 = biological target: T1, KCC3 (Homo sapiens, UniProt Q9UHW9); experiment: Tl+ assay, HEK-293 cells expressing KCC3; type: cell-based; details: read-out: concentration at which effects on KCC3 were seen (EC50 chart FIG. 1G)
# T1 construct: expressed in transfected cells; host or cells: HEK-293
# T1 sequence (Q9UHW9 1-1150): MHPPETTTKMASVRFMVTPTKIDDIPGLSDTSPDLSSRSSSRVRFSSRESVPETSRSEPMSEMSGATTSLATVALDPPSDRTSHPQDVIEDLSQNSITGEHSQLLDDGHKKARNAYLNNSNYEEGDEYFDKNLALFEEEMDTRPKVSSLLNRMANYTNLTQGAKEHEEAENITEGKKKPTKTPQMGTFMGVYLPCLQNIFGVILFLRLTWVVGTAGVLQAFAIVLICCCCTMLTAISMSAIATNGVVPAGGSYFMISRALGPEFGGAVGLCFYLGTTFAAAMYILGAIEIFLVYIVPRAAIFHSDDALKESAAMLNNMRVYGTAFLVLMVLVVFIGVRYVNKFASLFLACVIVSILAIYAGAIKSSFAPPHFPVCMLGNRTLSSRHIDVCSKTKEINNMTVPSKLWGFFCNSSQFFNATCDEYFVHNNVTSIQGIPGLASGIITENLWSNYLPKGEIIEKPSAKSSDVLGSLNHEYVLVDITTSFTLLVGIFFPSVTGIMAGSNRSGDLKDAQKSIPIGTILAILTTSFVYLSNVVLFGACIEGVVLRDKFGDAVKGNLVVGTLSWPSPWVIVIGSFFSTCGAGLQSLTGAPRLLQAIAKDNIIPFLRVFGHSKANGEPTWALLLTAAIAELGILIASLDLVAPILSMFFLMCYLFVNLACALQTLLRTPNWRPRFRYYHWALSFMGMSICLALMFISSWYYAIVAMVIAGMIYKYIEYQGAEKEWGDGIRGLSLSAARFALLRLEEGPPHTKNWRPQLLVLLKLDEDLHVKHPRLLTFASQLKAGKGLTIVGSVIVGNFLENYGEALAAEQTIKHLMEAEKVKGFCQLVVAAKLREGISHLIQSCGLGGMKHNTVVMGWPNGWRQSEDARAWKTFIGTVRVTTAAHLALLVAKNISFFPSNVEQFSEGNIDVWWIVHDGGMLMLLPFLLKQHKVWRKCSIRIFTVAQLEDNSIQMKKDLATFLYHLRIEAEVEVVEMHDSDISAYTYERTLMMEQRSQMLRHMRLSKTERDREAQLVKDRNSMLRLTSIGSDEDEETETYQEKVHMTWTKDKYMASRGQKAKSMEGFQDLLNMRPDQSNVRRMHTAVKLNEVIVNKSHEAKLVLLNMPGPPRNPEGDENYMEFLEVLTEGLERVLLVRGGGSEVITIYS
# Procedure: FLIPR TI Flux assay. HEK-293 cells were washed with HBSS, and then incubated with loading buffer containing TI sensitive fluorescent dye (https://www.moleculardevices.com), 20 μM bumetanide 20 μM ouabain and 2.5 mM probenecid for 1 h at room temperature (RT) under control conditions or with drugs in the dark using a FlexStation 3 microplate reader (Molecular Devices) and imaged […] for 30 min. Stimulus buffer was added containing 5 mM K^+/0.5 mM Tl^+ and cells were imaged every 1.5 over a 190 second time course The initial rate Tl^+ uptake (Relative Fluorescence Units (RFU) per second) was determined following addition of the stimulus buffer as outlined previously (Conway et at, 2017, supra) (Lee et at, 2022, supra).
# Several studies have shown that the activity and plasma membrane accumulation of KCC2 is potentiated via phosphorylation of S940, a process mediated by the activity of protein kinase C and protein phosphatase 1 (Lee et al., 2011, supra; Lee et al., J Biol Chem 282, 29777-29784 (2007); Moore et al., Proc. Natl. Acad. Sci. U.S.A. 115, 10166-10171 (2018); Moore et al., Trends Neurosci. 40, 555-571 (2017); Silayeva et al., Proc. Natl. Acad. Sci. U.S.A. 112, 3523-3528 (2015)). […] Compared to KCC2, effects on KCC3, KCC4, and NKCC1 were only seen at concentrations more than 35-fold that of KCC2 (>100 μM) (FIG. 1G).
# KA induced SE = experiment: Kainic acid (KA) induced SE, EEG recording, pretreatment; type: in vivo, mice
# Source text: This model was chosen due to the similarities with patients undergoing SE, as KA-induced seizures become refractory to benzodiazepines (BDZs) within minutes (Betjemann and Lowenstein, Lancet Neurol 14, 615-624 (2015); Crawshaw and Cock, (2020a) [Seizure: Eur. J. Epilep. 75 (2020) 145-152] Seizure 80, 282; Lee et at, 2022, supra; Reddy and Kuruba, Int J Mol Sci 14, 18284-18318 (2013)).
# EEG recordings and analysis. WT C57Bl/6J adult male mice (12 weeks) were anesthetized with isofluorane and implanted with EEG/EMG electrodes and allowed to recover for 7 days prior to experimentation. […] 2h following KA administration mice were injected with a saturating concentration of diazepam (DZ) 10 mg/kg (IP) and recordings were extended for a further 60 min. […] LabChart 8 software was used for data analysis. Epileptiform activity was identified by changes in the amplitude of electrographic activity characterized by consistent changes in the power of the Fast Fourier transform (FFT) of the EEG and abnormal activity characterized by periods of rhythmic spiking lasting longer than 30s (Moore et al., 2017, supra; Silayeva et al., 2015, supra; Sivakumaran et al., J. Neurosci. 35, 8291-8296 (2015)).
# To provide quantitative insights on the effects of KA, raw EEG recordings were subject to Fast-Fourier transformation (8K FFT size, Hann (cosine-bell), 87.50% window overlap) for frequencies between 0-100 Hz 2h after KA injection (Lee et at, 2022, supra).
# 30 or 60 min later mice were injected with KA (20 mg/kg) and 2h later with DZ as detailed above.
smiles,measurement,setting,value
"C[C@@H]1CN(c2nc3c(c(Nc4ccc(C5CCCCC5)cc4)n2)COC3)CCO1 [Compound A, (R)—N-(4-cyclohexylphenyl)-2-(2-methylmorpholino)-5,7-dihydrofuro[3,4-d]pyrimidin-4-amine]",EC50,KCC3,> 100 µM
same,seizure parameters after injection directly into the hippocampus,"KA induced SE; 10 μM or 20 μM, 30 or 60 min before KA 20 mg/kg, relative to vehicle","increased the latency to the 1st seizure, to SE, and reduced the percentage of time in epileptiform activity"
same,latency to the first seizure,"KA induced SE; 50 mg/kg SC 2h before 20 mg/kg KA IP, vehicle=10.2±2.5",14.4 ± 2.9 min
same,latency to SE,"KA induced SE; 50 mg/kg SC 2h before KA, vehicle=38.3±3.4",54.5 ± 6.9 min
same,time spent in epileptiform activity,"KA induced SE; 50 mg/kg SC 2h before KA, vehicle=85±5.4",62.5±8.4%
same,total EEG power post DZ,"KA induced SE; mice pretreated with Compound A, then DZ 10 mg/kg IP 2h after KA",2.7±3.2×10^−7 μV^2
same,total EEG power 2h after KA (pre DZ),"KA induced SE; pretreated with Compound A, vehicle 4.2±2.4×10^−6",6.9±3.2×10^−7 μV^2
same,development of refractory status epilepticus (RSE),"KA induced SE; pretreatment, 4h later",prevented the development of refractory status epilepticus (RSE)

# Source: patent publication US20250281497A1, “FUSED AMINO PYRIMIDINE COMPOUNDS FOR TREATMENT OF SEIZURE DISORDERS” (Ovid Therapeutics Inc., priority 2024, published 2025)
